Results taken from publication PMC10657444, “Design and evaluation of tadpole-like conformational antimicrobial peptides” (Communications Biology, 2023).
In brackets after ≈: the same amount, converted by molar mass. Several values for one entry are separate records, joined by “and”; a condition that tells them apart may be missing. Equal entries are not always repeated. Residues, ends and D or L forms follow the SMILES beside them.

Experiments:
[1] = tested on: K. pneumoniae ATCC 700603; test: Time-kill assay; format: cell-based, Klebsiella pneumoniae
Description: (§1) Time-kill assays were done in tubes (in 1.5 mL of LB) and antibiotics at the 1 ×, 2 ×, 4 × and 8 × MIC. Tubes were inoculated (5 × 10^6 CFU/mL) with MRSA USA 300 and K. pneumoniae ATCC 700603 and incubated at 37 °C under shaking. Serial dilutions of the cultures were plated at each desired time point (0, 1, 3, 6, and 24 h), using a multichannel pipette as follows: in line 1 of a 96-well plate, 100 µL of bacterial suspension was added, while 90 µL of 0.9% sterile saline per well was added to the other lines. At selected time points, 100 µL of bacterial suspension was transferred from the time-kill assay plate to the first line. The wells were further diluted 1 in 10 (0.9% saline) for the appropriate number of dilutions and 10 μL of each dilution was spotted in duplicate onto MH agar plates, then incubated overnight at 37°C. The colonies in each spot were counted and used to calculate the number of viable CFU/mL remaining in the original culture by considering the dilution factors.

sheep red blood cells = test: Hemolysis assay
Description: To evaluate the hemolysis effects of peptides, red blood hemolysis was performed as described with minimum modifications. Sterile defibrated sheep blood was purchased from Guangzhou Hongquan Biotechnology Co., LTD. Blood cells were adjusted to 2 × 10^9 cells/mL in phosphate-buffered saline (PBS, pH 7.4). In total, 98 μL sheep red blood cell suspension was incubated with 2 μL of peptides at different concentrations ranging from 3.13 to 100 µM. After incubation for 1 h at 37 °C, the cells were centrifuged and the absorbance of the supernatant was measured at 450 nm. The value for “zero hemolysis” was determined using sterile PBS, while 100% hemolysis was established using 1.5% (v/v) Triton X-100. Hemolysis of testing sample was calculated as the percentage of Triton X-100-induced hemolysis.

MRSA USA 300 [2] = test: Time-kill assay; format: cell-based, Staphylococcus aureus
Description: as §1

[3] = tested on: K. pneumoniae ATCC 700603; test: Membrane permeability, SYTOX Green; format: cell-based, Klebsiella pneumoniae
Description: Fluorescent probe SYTOX^TM Green (Invitrogen/ Life Technologies, S7020) was used to analyze the effect of HT2 and RI-HT2 on membrane permeability of MRSA USA 300 and K. pneumoniae ATCC 700603 as described elsewhere. SYTOX^TM Green is a DNA binding dye that is fluorescent when bound to nucleic acids and only enters cells with compromised plasma membranes. MRSA USA 300 and K. pneumoniae ATCC 700603 were cultured in LB broth to mid log phase at 37 °C and washed with PBS and resuspended (OD595 ≈ 0.1) in the same buffer. SYTOX^TM Green was added into the cell suspension with a final concentration of 5 μM and being kept in dark for 20 min. 98 µL pre-treated cell suspension was transferred into wells of 96-well glass black plates. Then, 2 µL of compound or DMSO were added to initiate the reaction. The final concentrations of HT2 and RI-HT2 were 1 ×, 2 ×, 4 × and 8 × MIC. Fluorescence strength was measured with excitation/emission wavelength of 485/528 nm every 5 min for 60 min.

MRSA 3393 = format: cell-based, Staphylococcus aureus; details: 3393
Excerpt: (§2) Bacteria were cultivated in Luria-Bertani (LB) broth.

MRSA ATCC 43300 = format: cell-based, Staphylococcus aureus; details: ATCC 43300
Excerpt: as §2

MRSA USA 300 [4] = format: cell-based, Staphylococcus aureus
Excerpt: as §2

CC[C@H](C)[C@H](NC(=O)[C@H](CCCNC(=N)N)NC(=O)[C@H](CCCNC(=N)N)NC(=O)[C@H](CC(C)C)NC(=O)[C@H](Cc1ccccc1)NC(=O)[C@@H](N)CCCNC(=N)N)C(=O)N[C@@H](Cc1ccccc1)C(=O)N[C@@H](Cc1ccccc1)C(=O)N[C@@H](Cc1ccccc1)C(=O)N[C@@H](Cc1ccccc1)C(N)=O [HT2] (H-RFLRRIFFFF-NH2)
viable count, time-kill ([1]; 2 × MIC, 0 h): 3000000 CFU/mL and 3500000 CFU/mL and 3400000 CFU/mL
viable count, time-kill ([1]; 2 × MIC, 1 h): 275000 CFU/mL and 375000 CFU/mL and 310000 CFU/mL
viable count, time-kill ([1]; 2 × MIC, 3 h): 33000 CFU/mL and 31000 CFU/mL
viable count, time-kill ([1]; 2 × MIC, 6 h): 14000 CFU/mL and 18000 CFU/mL and 16000 CFU/mL
viable count, time-kill ([1]; 2 × MIC, 24 h): 18000 CFU/mL and 24000 CFU/mL and 23000 CFU/mL
viable count, time-kill ([1]; 4 × MIC, 0 h): 3000000 CFU/mL and 3500000 CFU/mL and 3400000 CFU/mL
viable count, time-kill ([1]; 4 × MIC, 1 h): 70000 CFU/mL and 65000 CFU/mL and 66000 CFU/mL
viable count, time-kill ([1]; 4 × MIC, 6 h): 8000 CFU/mL and 7400 CFU/mL and 9000 CFU/mL
viable count, time-kill ([1]; 4 × MIC, 24 h): 16000 CFU/mL and 21000 CFU/mL and 19000 CFU/mL
viable count, time-kill ([1]; 8 × MIC, 0 h): 3000000 CFU/mL and 3500000 CFU/mL and 3400000 CFU/mL
viable count, time-kill ([1]; 8 × MIC, 1 h): 520000 CFU/mL and 540000 CFU/mL and 550000 CFU/mL
viable count, time-kill ([1]; 8 × MIC, 3 h): 500 CFU/mL and 700 CFU/mL
viable count, time-kill ([1]; 8 × MIC, 24 h): 100 CFU/mL and 200 CFU/mL
killing outcome (in words) ([1]; 8 × MIC, after 24 h): cannot completely be killed
viable count, time-kill ([1]; MIC, 0 h): 3000000 CFU/mL and 3500000 CFU/mL and 3400000 CFU/mL
viable count, time-kill ([1]; MIC, 1 h): 400000 CFU/mL and 330000 CFU/mL and 410000 CFU/mL
viable count, time-kill ([1]; MIC, 6 h): 430000 CFU/mL and 570000 CFU/mL and 480000 CFU/mL
viable count, time-kill ([1]; MIC, 24 h): 51000000 CFU/mL and 58000000 CFU/mL and 54000000 CFU/mL
OD450, hemolysis (Fig 2b), replicates (sheep red blood cells; 6.25 µM): 0.02117 (2×) and 0.02078 and 0.02133 (2×) and 0.02093
OD450, hemolysis (Fig 2b), replicates (sheep red blood cells; 12.5 µM): 0.02313 and 0.0233
HC10 (concentration inducing 10% hemolysis) (sheep red blood cells; red cells of sheep, 1 h): > 100.0 µM
viable count, time-kill (MRSA USA 300 [2]; 2 × MIC, 0 h): 3600000 CFU/mL and 3500000 CFU/mL and 3200000 CFU/mL
viable count, time-kill (MRSA USA 300 [2]; 2 × MIC, 3 h): 3900000 CFU/mL and 3800000 CFU/mL
viable count, time-kill (MRSA USA 300 [2]; 2 × MIC, 6 h): 1700000 CFU/mL and 1900000 CFU/mL
viable count, time-kill (MRSA USA 300 [2]; 2 × MIC, 24 h): 910000 CFU/mL and 920000 CFU/mL and 890000 CFU/mL
viable count, time-kill (MRSA USA 300 [2]; 4 × MIC, 0 h): 3600000 CFU/mL and 3500000 CFU/mL and 3200000 CFU/mL
viable count, time-kill (MRSA USA 300 [2]; 4 × MIC, 1 h): 970000 CFU/mL and 1040000 CFU/mL and 1090000 CFU/mL
viable count, time-kill (MRSA USA 300 [2]; 4 × MIC, 3 h): 840000 CFU/mL and 870000 CFU/mL and 910000 CFU/mL
viable count, time-kill (MRSA USA 300 [2]; 4 × MIC, 6 h): 150000 CFU/mL and 160000 CFU/mL and 180000 CFU/mL
viable count, time-kill (MRSA USA 300 [2]; 4 × MIC, 24 h): 68000 CFU/mL and 71000 CFU/mL and 72000 CFU/mL
viable count, time-kill (MRSA USA 300 [2]; 8 × MIC, 0 h): 3600000 CFU/mL and 3500000 CFU/mL and 3200000 CFU/mL
viable count, time-kill (MRSA USA 300 [2]; 8 × MIC, 1 h): 990000 CFU/mL and 950000 CFU/mL and 910000 CFU/mL
viable count, time-kill (MRSA USA 300 [2]; 8 × MIC, 3 h): 580000 CFU/mL and 590000 CFU/mL
viable count, time-kill (MRSA USA 300 [2]; 8 × MIC, 6 h): 68000 CFU/mL and 70000 CFU/mL and 77000 CFU/mL
viable count, time-kill (MRSA USA 300 [2]; 8 × MIC, 24 h): 1000 CFU/mL and 1100 CFU/mL and 1400 CFU/mL
killing outcome (in words) (MRSA USA 300 [2]; 8 × MIC, after 24 h): cannot completely be killed
viable count, time-kill (MRSA USA 300 [2]; MIC, 0 h): 3600000 CFU/mL and 3500000 CFU/mL and 3200000 CFU/mL
viable count, time-kill (MRSA USA 300 [2]; MIC, 1 h): 4600000 CFU/mL and 4900000 CFU/mL
viable count, time-kill (MRSA USA 300 [2]; MIC, 3 h): 2100000 CFU/mL and 2000000 CFU/mL and 2300000 CFU/mL
viable count, time-kill (MRSA USA 300 [2]; MIC, 6 h): 2800000 CFU/mL and 2500000 CFU/mL and 1700000 CFU/mL
viable count, time-kill (MRSA USA 300 [2]; MIC, 24 h): 4100000000 CFU/mL and 4400000000 CFU/mL and 4900000000 CFU/mL
Fluorescence intensity ([3]; 2 × MIC, time 0 min): 501695 and 509033 and 502622
Fluorescence intensity ([3]; 2 × MIC, time 5 min): 1090890 and 1043729 and 1064139
Fluorescence intensity ([3]; 2 × MIC, time 10 min): 1729072 and 1765938 and 1671967
Fluorescence intensity ([3]; 2 × MIC, time 15 min): 2450918 and 2522662 and 2381578
Fluorescence intensity ([3]; 2 × MIC, time 20 min): 3050480 and 3158194 and 2985766
Fluorescence intensity ([3]; 2 × MIC, time 25 min): 3669210 and 3714426 and 3535044
Fluorescence intensity ([3]; 2 × MIC, time 30 min): 4083450 and 4189312 and 4054249
Fluorescence intensity ([3]; 2 × MIC, time 35 min): 4565952 and 4682018 and 4543315
Fluorescence intensity ([3]; 4 × MIC, time 0 min): 525974 and 544262 and 540364
Fluorescence intensity ([3]; 4 × MIC, time 5 min): 1702985 and 1566300 and 1596913
Fluorescence intensity ([3]; 4 × MIC, time 10 min): 2584709 and 2629728 and 2589896
Fluorescence intensity ([3]; 4 × MIC, time 15 min): 4158305 and 4176033 and 4135763
Fluorescence intensity ([3]; 4 × MIC, time 20 min): 5327990 and 5380046 and 5341458
Fluorescence intensity ([3]; 4 × MIC, time 25 min): 6471332 and 6483549 and 6409400
Fluorescence intensity ([3]; 4 × MIC, time 30 min): 7570513 and 7493394 and 7434627
Fluorescence intensity ([3]; 4 × MIC, time 35 min): 8228675 and 8284610 and 8343092
Fluorescence intensity ([3]; 8 × MIC, time 0 min): 870465 and 760375 and 885415
Fluorescence intensity ([3]; 8 × MIC, time 5 min): 1479590 and 1252173 and 1198504
Fluorescence intensity ([3]; 8 × MIC, time 10 min): 2304082 and 2051490 and 2261553
Fluorescence intensity ([3]; 8 × MIC, time 15 min): 3691170 and 2983585 and 3730581
Fluorescence intensity ([3]; 8 × MIC, time 20 min): 5088194 and 4586923 and 5243088
Fluorescence intensity ([3]; 8 × MIC, time 25 min): 6892750 and 6059584 and 6984752
Fluorescence intensity ([3]; 8 × MIC, time 30 min): 8250478 and 7253838 and 8382724
Fluorescence intensity ([3]; 8 × MIC, time 35 min): 8870007 and 7712378 and 8970308
Fluorescence intensity ([3]; 8 × MIC, time 40 min): 10334018
Fluorescence intensity ([3]; MIC, time 0 min): 550162 and 549500 and 565924
Fluorescence intensity ([3]; MIC, time 5 min): 788019 and 747687 and 700922
Fluorescence intensity ([3]; MIC, time 10 min): 953632 and 962086 and 882779
Fluorescence intensity ([3]; MIC, time 15 min): 1211256 and 1113347 and 1136029
Fluorescence intensity ([3]; MIC, time 20 min): 1429978 and 1306982 and 1354221
Fluorescence intensity ([3]; MIC, time 25 min): 1431312 and 1479927 and 1452172
Fluorescence intensity ([3]; MIC, time 30 min): 1813062 and 1687978 and 1751083
Fluorescence intensity ([3]; MIC, time 35 min): 1966664 and 1821317 and 1900107
Fluorescence intensity ([3]; MIC, time 40 min): 2166119 and 2083647 and 2111537
time to highest SYTOX Green fluorescence intensity ([3]; dose-dependent): ≤ 40 min
MIC Gram+ MRSA 3393 (MRSA 3393): 1.57 µM (≈ 2.27 µg/mL)
MIC Gram+ MRSA ATCC 43300 (MRSA ATCC 43300): 1.57 µM (≈ 2.27 µg/mL)
MIC Gram+ MRSA USA 300 (MRSA USA 300 [4]): 1.57 µM (≈ 2.27 µg/mL)
